Measured values from PMC3561128, “Preclinical evaluation of carbon-11 and fluorine-18 sulfonamide derivatives for in vivo radiolabeling of erythrocytes” (EJNMMI Research, 2013).

Tests used:
[1] = Log D (1-octanol/phosphate buffer pH 7.4), shake flask method; assay type: physicochemical
Description: Determination of the distribution coefficient (log D1-octanol/phosphate buffer pH 7.4), was carried out by a shake flask method. An aliquot (25 μL) of the tracer agents ^18F]-(3), ^11C]-(4), ^18F]-(5), or ^11C]-(6) (185 to 555 kBq/mL) was added to a polypropylene tube (5 mL; Sarstedt, Nümbrecht, Germany) containing 2 mL of 0.025 M sodium phosphate buffer pH 7.4 and 2 mL of 1-octanol. The tube was vortexed for 2 min at room temperature followed by centrifugation at 3,000 rpm for 10 min (Eppendorf centrifuge 5810, Eppendorf, Westbury, NY, USA). Aliquots of 50 μL of the 1-octanol phase and 500 μL of the phosphate buffer phase were pipetted into separate tared Eppendorf tubes with adequate care to avoid cross contamination between the two phases. The samples were weighed, and radioactivity was quantified using an automated gamma counter. The experiments were carried out sixfold.

hCA II = hCA II (Homo sapiens, UniProt P00918); assay: CA-catalyzed CO2 hydration, stopped-flow inhibition assay; assay type: biochemical; details: human (cloned) isozyme; CO2 hydration reaction at 20°C; n = 3
Description: (§1) Phenol red (0.2 mM) was used as indicator, working at the absorbance maximum of 557 nm, with 10 mM Hepes as buffer (pH 7.5) and 0.1 M Na2SO4 (for maintaining constant ionic strength) at 25°C following the CA-catalyzed CO2 hydration reaction for a period of 10 to 100 s (the uncatalyzed reaction needs around 60 to 100 s under assay conditions, whereas the catalyzed reactions take around 6 to 10 s). The CO2 concentrations ranged from 1.7 to 17 mM for the determination of kinetic parameters. Each compound was tested in the concentration range between 0.01 nM to 100 μM. The uncatalyzed rates were determined in the same manner and subtracted from the total observed rates. Stock solutions of the compounds (0.1 mM) were prepared in distilled water with 10% to 20% (v/v) DMSO (which is non-inhibitory at these concentrations), and dilutions up to 0.01 nM were made with distilled water. Inhibitor and enzyme solutions were preincubated together for 15 min at room temperature prior to the assay, in order to allow the formation of enzyme-inhibitor complex. The inhibition constants were obtained by nonlinear least square methods using PRISM 3 (GraphPad Software, La Jolla, CA, USA), and they represent the mean from at least three different determinations.

hCA I = hCA I (Homo sapiens, UniProt P00915); assay: as above; assay type: biochemical; details: human (cloned) isozyme; CO2 hydration reaction at 20°C; n = 3
Description: as §1

[2] = Biodistribution studies in NMRI mice; assay type: in vivo; details: i.v.; for Percentage of ID, blood: blood mass assumed 7% of body mass
Description: The biodistribution studies were performed in wild-type NMRI mice with body weights ranging from 30 to 40 g. Mice were intravenously injected with 0.1 MBq of ^18F]-(3) or ^18F]-(5) and 5.5 MBq of ^11C]-(4) or ^11C]-(6) under anesthesia (2% isoflurane in O2 at a flow rate of 1 L/min). The animals were killed by decapitation at 2 min or 60 min p.i. (n = 4/time point for ^18F]-(3), ^11C]-(4), and ^11C]-(6); n = 6 for ^18F]-(5)). Blood was collected, and all major organs were dissected and collected in tarred tubes and were weighed. The radioactivity in each organ was counted using an automated gamma counter, corrected for background radioactivity and expressed as follows: percentage of the injected dose (% ID) or as standardized uptake value (SUV) (SUV = (Counts in tissue per gram of tissue) / (Injected counts per total body mass (g)). For the calculation of total radioactivity in the blood, blood mass was assumed to be 7% of the body mass.

[3] = Dynamic micro-PET scan in rats; assay type: in vivo, Wistar rat
Description: PET images were acquired on a FOCUS 220 tomograph (Siemens/Concorde Microsystems, Knoxville, TN, USA). During all scan sessions, rats were anesthetized (2.5% isoflurane in O2 at a flow rate of 1 L/min) and scanned in prone position. [^18F]-(5) (37 MBq) was administered via the tail vein, and a 1-h dynamic scan was acquired. The images were acquired in list mode and binned in sinograms using a 21-dynamic frame protocol (4 × 15, 4 × 60, 5 × 180, 8 × 300 s). Reconstruction was performed with the Focus 220 software (using Fourier rebinning, followed by two-dimensional (2D) OSEM algorithm), and data were analyzed using PMOD (version 2.65; PMOD, Zurich, Switzerland). The radioactivity concentration in the heart region was expressed as SUVs as a function of time after injection of the radiotracer.

Chain of hCA I (P00915 whole entry): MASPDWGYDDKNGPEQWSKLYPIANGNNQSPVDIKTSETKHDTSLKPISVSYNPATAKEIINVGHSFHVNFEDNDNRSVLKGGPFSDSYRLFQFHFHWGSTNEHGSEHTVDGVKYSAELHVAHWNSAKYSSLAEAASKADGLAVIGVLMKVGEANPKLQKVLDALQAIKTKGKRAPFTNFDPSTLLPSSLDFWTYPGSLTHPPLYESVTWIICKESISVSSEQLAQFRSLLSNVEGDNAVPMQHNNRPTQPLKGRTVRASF

Structure (SMILES): COc1ccc(C(=O)NCCc2ccc(S(N)(=O)=O)cc2)cc1 [(4)]
- logD [1]: 1.19
- Ki (hCA II): 20 nM
- Ki (hCA I): 390 nM

Structure (SMILES): COc1ccc(S(N)(=O)=O)cc1 [(6)]
- logD [1]: 0.42
- Ki (hCA II): 422 nM
- Ki (hCA I): 24700 nM

Structure (SMILES): [11CH3]Oc1ccc(S(N)(=O)=O)cc1 [[^11C]-(6), 4-[^11C]methoxybenzene sulfonamide]
- Percentage of ID, brain ([2]; 2 min p.i.): 0.7 ± 0.1 % ID
- Percentage of ID, carcass ([2]; 2 min p.i.): 28.4 ± 2.0 % ID
- Percentage of ID, heart ([2]; 2 min p.i.): 0.7 ± 0.2 % ID
- Percentage of ID, intestines ([2]; 2 min p.i.): 5.2 ± 0.9 % ID
- Percentage of ID, kidneys ([2]; 2 min p.i.): 3.7 ± 0.1 % ID
- Percentage of ID, liver ([2]; 2 min p.i.): 6.9 ± 0.4 % ID
- Percentage of ID, lungs ([2]; 2 min p.i.): 6.3 ± 2.7 % ID
- Percentage of ID, spleen + pancreas ([2]; 2 min p.i.): 1.2 ± 0.1 % ID
- Percentage of ID, stomach ([2]; 2 min p.i.): 1.5 ± 0.3 % ID
- Percentage of ID, urine ([2]; 2 min p.i.): 0.3 ± 0.1 % ID
- SUV, blood ([2]; 2 min p.i.): 11.9 ± 1.1
- SUV, brain ([2]; 2 min p.i.): 0.7 ± 0.1
- SUV, heart ([2]; 2 min p.i.): 1.6 ± 0.4
- SUV, kidneys ([2]; 2 min p.i.): 2.4 ± 0.3
- SUV, liver ([2]; 2 min p.i.): 1.5 ± 0.1
- SUV, lungs ([2]; 2 min p.i.): 6.2 ± 2.1
- SUV, spleen ([2]; 2 min p.i.): 1.9 ± 0.8
- Percentage of ID, blood ([2]; 2 min p.i.): 83.4 ± 7.7 % ID
- Percentage of ID, brain ([2]; 60 min p.i.): 1.5 ± 0.1 % ID
- Percentage of ID, carcass ([2]; 60 min p.i.): 26.1 ± 1.0 % ID
- Percentage of ID, heart ([2]; 60 min p.i.): 0.4 ± 0.1 % ID
- Percentage of ID, intestines ([2]; 60 min p.i.): 19.3 ± 1.0 % ID
- Percentage of ID, kidneys ([2]; 60 min p.i.): 4.1 ± 0.6 % ID
- Percentage of ID, liver ([2]; 60 min p.i.): 6.1 ± 0.5 % ID
- Percentage of ID, lungs ([2]; 60 min p.i.): 3.1 ± 1.4 % ID
- Percentage of ID, spleen + pancreas ([2]; 60 min p.i.): 2.3 ± 0.6 % ID
- Percentage of ID, stomach ([2]; 60 min p.i.): 2.4 ± 0.2 % ID
- Percentage of ID, urine ([2]; 60 min p.i.): 4.8 ± 0.3 % ID
- SUV, blood ([2]; 60 min p.i.): 7.1 ± 0.7
- SUV, brain ([2]; 60 min p.i.): 1.1 ± 0.1
- SUV, heart ([2]; 60 min p.i.): 0.9 ± 0.1
- SUV, kidneys ([2]; 60 min p.i.): 2.4 ± 0.2
- SUV, liver ([2]; 60 min p.i.): 1.4 ± 0.2
- SUV, lungs ([2]; 60 min p.i.): 3.5 ± 1.1
- SUV, spleen ([2]; 60 min p.i.): 2.4 ± 0.4
- Percentage of ID, blood ([2]; 60 min p.i.): 49.7 ± 4.8 % ID

Structure (SMILES): NS(=O)(=O)c1ccc(OCC[18F])cc1 [[^18F]-(5), 4-(2-[^18F]fluoroethoxy)benzenesulfonamide]
- Average SUV ratio heart-to-kidney ([3]; micro-PET): 2.5
- Average SUV ratio heart-to-liver ([3]; micro-PET): 4
- Average SUV ratio heart-to-spleen ([3]; micro-PET): 2.3
- Bone uptake (in vivo defluorination) ([3]; micro-PET): no bone uptake was observed
- Heart region SUV at 60 min relative to the 2-min value ([3]; micro-PET): 75%
- SUV, heart ([3]; micro-PET time activity curves, 37 MBq i.v.): 2.5
- Percentage of ID, brain ([2]; 2 min p.i.): 0.3 ± 0.0 % ID
- Percentage of ID, carcass ([2]; 2 min p.i.): 18.8 ± 1.6 % ID
- Percentage of ID, heart ([2]; 2 min p.i.): 0.6 ± 0.1 % ID
- Percentage of ID, intestines ([2]; 2 min p.i.): 2.9 ± 0.4 % ID
- Percentage of ID, kidneys ([2]; 2 min p.i.): 4.1 ± 0.8 % ID
- Percentage of ID, liver ([2]; 2 min p.i.): 6.0 ± 1.1 % ID
- Percentage of ID, lungs ([2]; 2 min p.i.): 7.3 ± 3.9 % ID
- Percentage of ID, spleen + pancreas ([2]; 2 min p.i.): 1.1 ± 0.1 % ID
- Percentage of ID, stomach ([2]; 2 min p.i.): 0.8 ± 0.2 % ID
- Percentage of ID, urine ([2]; 2 min p.i.): 0.3 ± 0.1 % ID
- SUV, blood ([2]; 2 min p.i.): 17.3 ± 2.5
- SUV, brain ([2]; 2 min p.i.): 0.5 ± 0.1
- SUV, heart ([2]; 2 min p.i.): 1.6 ± 0.4
- SUV, kidneys ([2]; 2 min p.i.): 3.1 ± 0.6
- SUV, liver ([2]; 2 min p.i.): 1.4 ± 0.3
- SUV, lungs ([2]; 2 min p.i.): 9.3 ± 2.9
- SUV, spleen ([2]; 2 min p.i.): 2.1 ± 0.7
- Percentage of ID, blood ([2]; 2 min p.i.): 106.3 ± 5.2 % ID
- Percentage of ID, brain ([2]; 60 min p.i.): 1.0 ± 0.1 % ID
- Percentage of ID, carcass ([2]; 60 min p.i.): 22.4 ± 1.5 % ID
- Percentage of ID, heart ([2]; 60 min p.i.): 0.6 ± 0.2 % ID
- Percentage of ID, intestines ([2]; 60 min p.i.): 9.6 ± 2.8 % ID
- Percentage of ID, kidneys ([2]; 60 min p.i.): 3.7 ± 1.1 % ID
- Percentage of ID, liver ([2]; 60 min p.i.): 4.0 ± 0.2 % ID
- Percentage of ID, lungs ([2]; 60 min p.i.): 1.8 ± 0.6 % ID
- Percentage of ID, spleen + pancreas ([2]; 60 min p.i.): 0.9 ± 0.4 % ID
- Percentage of ID, stomach ([2]; 60 min p.i.): 4.2 ± 3.1 % ID
- SUV, blood ([2]; 60 min p.i.): 11.1 ± 1.2
- SUV, brain ([2]; 60 min p.i.): 1.4 ± 0.2
- SUV, heart ([2]; 60 min p.i.): 1.7 ± 0.5
- SUV, kidneys ([2]; 60 min p.i.): 2.5 ± 0.4
- SUV, liver ([2]; 60 min p.i.): 1.0 ± 0.1
- SUV, lungs ([2]; 60 min p.i.): 3.8 ± 0.4
- SUV, spleen ([2]; 60 min p.i.): 2.2 ± 0.8
- Percentage of ID, blood ([2]; 60 min p.i.): 71.0 ± 14.5 % ID
